Measured values from the supplement of paper PMC10307832.

Columns and labels:
Assay in all cases: relative viability (nuclei count vs DMSO), 5 days (fraction); higher = more cells survive
[1] = system: NCI-H460
Outline: (§1)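 Dosing by pin tool came one day after lung cancer cell lines were seeded in 1536-well plates, using either one drug or a fixed anchor-drug dose plus five library-drug doses (not always all listed) in √10 steps. After 5 days, nuclei were counted on 4× images. Relative viability is treated-well nuclei count divided by vehicle-well nuclei count, and values are medians of duplicate plates.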

[2] = system: NCI-H2228
Outline: as §1

[3] = system: NCI-H1792
Outline: as §1

[4] = system: COR-L 105
Outline: as §1

[5] = system: NCI-H727
Outline: as §1

[6] = system: LCLC-103H
Outline: as §1

[7] = system: HCC-366
Outline: as §1

[8] = system: HOP-62
Outline: as §1

[9] = system: NCI-H1755
Outline: as §1

[10] = system: CAL-12T
Outline: as §1

[11] = system: NCI-H2009
Outline: as §1

CC(=O)O[C@@]12CO[C@@H]1C[C@H](O)[C@@]1(C)C(=O)[C@H](O)C3=C(C)[C@@H](OC(=O)[C@H](O)[C@@H](NC(=O)OC(C)(C)C)c4ccccc4)C[C@@](O)([C@@H](OC(=O)c4ccccc4)[C@H]21)C3(C)C [Docetaxel] + C[C@]1(O)C[C@@H](c2nc(-c3ccc4ccc(-c5ccccc5)nc4c3)c3c(N)nccn32)C1 [Linsitinib] (partner 1 µM)
relative viability ([1]; first compound 0.002 µM): 0.0174 | relative viability ([1]; first compound 0.006325 µM): 0.0113 | relative viability ([1]; first compound 0.02 µM): 0.0074 | relative viability ([2]; first compound 0.0002 µM): 0.326 | relative viability ([2]; first compound 0.000632 µM): 0.197 | relative viability ([2]; first compound 0.002 µM): 0.173 | relative viability ([2]; first compound 0.006325 µM): 0.155 | relative viability ([2]; first compound 0.02 µM): 0.129 | relative viability ([3]; first compound 0.0002 µM): 0.539 | relative viability ([3]; first compound 0.000632 µM): 0.509 | relative viability ([3]; first compound 0.002 µM): 0.379 | relative viability ([3]; first compound 0.02 µM): 0.0833 | relative viability ([4]; first compound 0.0002 µM): 0.899 | relative viability ([4]; first compound 0.000632 µM): 0.757 | relative viability ([4]; first compound 0.002 µM): 0.395 | relative viability ([4]; first compound 0.006325 µM): 0.362 | relative viability ([4]; first compound 0.02 µM): 0.288 | relative viability ([5]; first compound 0.0002 µM): 0.384 | relative viability ([5]; first compound 0.000632 µM): 0.307 | relative viability ([5]; first compound 0.002 µM): 0.22 | relative viability ([5]; first compound 0.006325 µM): 0.211 | relative viability ([5]; first compound 0.02 µM): 0.21 | relative viability ([6]; first compound 0.0002 µM): 0.934 | relative viability ([6]; first compound 0.000632 µM): 1.18 | relative viability ([6]; first compound 0.002 µM): 0.919 | relative viability ([6]; first compound 0.006325 µM): 0.479 | relative viability ([6]; first compound 0.02 µM): 0.503 | relative viability ([7]; first compound 0.0002 µM): 0.423 | relative viability ([7]; first compound 0.000632 µM): 0.545 | relative viability ([7]; first compound 0.002 µM): 0.0386 | relative viability ([7]; first compound 0.006325 µM): 0.012 | relative viability ([7]; first compound 0.02 µM): 0.0114 | relative viability ([8]; first compound 0.0002 µM): 1.18 | relative viability ([8]; first compound 0.000632 µM): 0.672 | relative viability ([8]; first compound 0.02 µM): 0.128 | relative viability ([9]; first compound 0.0002 µM): 0.948 | relative viability ([9]; first compound 0.000632 µM): 0.971 | relative viability ([9]; first compound 0.002 µM): 0.48 | relative viability ([9]; first compound 0.006325 µM): 0.384 | relative viability ([9]; first compound 0.02 µM): 0.302 | relative viability ([10]; first compound 0.0002 µM): 0.725 | relative viability ([10]; first compound 0.000632 µM): 0.694 | relative viability ([10]; first compound 0.002 µM): 0.303 | relative viability ([10]; first compound 0.006325 µM): 0.184 | relative viability ([10]; first compound 0.02 µM): 0.14 | relative viability ([11]; first compound 0.0002 µM): 1.15 | relative viability ([11]; first compound 0.000632 µM): 1.18 | relative viability ([11]; first compound 0.002 µM): 0.77 | relative viability ([11]; first compound 0.006325 µM): 0.522 | relative viability ([11]; first compound 0.02 µM): 0.187
